Legend:
[1] = target: 5-hydroxytryptamine receptor 2A (Rattus norvegicus, UniProt P14842); experiment: Inhibition constant for in vitro inhibition of [3H]ketanserin binding to rat frontal cortex membranes 5-hydroxytryptamine 2A receptor; type: cell membranes, Membrane
D(2) dopamine receptor = D(2) dopamine receptor (Rattus norvegicus, UniProt P61169); experiment: Inhibition constant for in vitro inhibition of [3H]spiperone binding to striatal membranes Dopamine receptor D2
D(1A) dopamine receptor = D(1A) dopamine receptor (Rattus norvegicus, UniProt P18901); experiment: Inhibition constant for in vitro inhibition of [3H]-SCH- 23390 binding to striatal membranes Dopamine receptor D1; parameters: species or system Striatum, Membrane
Rattus norvegicus [2] = species: Rattus norvegicus; experiment: (§1) Competitive antagonism against serotonin-induced contractions in rat aorta ring stripped of endothelium; conditions: read-out: pA2 (converted)
Rattus norvegicus [3] = species: Rattus norvegicus; experiment: as §1; type: functional; conditions: read-out: pA2 (converted)

D(1A) dopamine receptor, sequence (P18901 whole entry): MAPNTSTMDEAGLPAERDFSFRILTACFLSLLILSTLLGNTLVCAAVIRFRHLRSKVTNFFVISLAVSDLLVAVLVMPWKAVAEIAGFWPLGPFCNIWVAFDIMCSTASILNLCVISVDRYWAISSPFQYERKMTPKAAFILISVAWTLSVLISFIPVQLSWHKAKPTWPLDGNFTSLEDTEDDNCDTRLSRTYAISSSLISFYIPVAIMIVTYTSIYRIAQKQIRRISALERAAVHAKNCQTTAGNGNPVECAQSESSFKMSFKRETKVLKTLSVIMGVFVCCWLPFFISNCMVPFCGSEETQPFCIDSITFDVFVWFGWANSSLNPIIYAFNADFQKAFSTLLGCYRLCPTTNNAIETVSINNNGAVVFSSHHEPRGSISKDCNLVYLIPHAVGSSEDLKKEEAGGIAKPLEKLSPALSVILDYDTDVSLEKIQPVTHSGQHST
D(2) dopamine receptor, sequence (P61169 whole entry): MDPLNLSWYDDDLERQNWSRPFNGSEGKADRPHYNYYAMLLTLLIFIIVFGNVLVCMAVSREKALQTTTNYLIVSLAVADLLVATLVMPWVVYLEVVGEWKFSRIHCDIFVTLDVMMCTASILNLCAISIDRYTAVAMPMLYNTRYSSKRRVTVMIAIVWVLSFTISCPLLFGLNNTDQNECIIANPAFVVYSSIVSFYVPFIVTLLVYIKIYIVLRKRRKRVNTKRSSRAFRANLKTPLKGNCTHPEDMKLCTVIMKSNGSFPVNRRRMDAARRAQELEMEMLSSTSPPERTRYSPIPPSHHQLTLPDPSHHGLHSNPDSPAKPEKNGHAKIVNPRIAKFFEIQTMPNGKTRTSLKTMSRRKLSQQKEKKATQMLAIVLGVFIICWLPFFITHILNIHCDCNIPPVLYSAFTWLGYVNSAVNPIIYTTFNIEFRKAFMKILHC
5-hydroxytryptamine receptor 2A, sequence (P14842 whole entry): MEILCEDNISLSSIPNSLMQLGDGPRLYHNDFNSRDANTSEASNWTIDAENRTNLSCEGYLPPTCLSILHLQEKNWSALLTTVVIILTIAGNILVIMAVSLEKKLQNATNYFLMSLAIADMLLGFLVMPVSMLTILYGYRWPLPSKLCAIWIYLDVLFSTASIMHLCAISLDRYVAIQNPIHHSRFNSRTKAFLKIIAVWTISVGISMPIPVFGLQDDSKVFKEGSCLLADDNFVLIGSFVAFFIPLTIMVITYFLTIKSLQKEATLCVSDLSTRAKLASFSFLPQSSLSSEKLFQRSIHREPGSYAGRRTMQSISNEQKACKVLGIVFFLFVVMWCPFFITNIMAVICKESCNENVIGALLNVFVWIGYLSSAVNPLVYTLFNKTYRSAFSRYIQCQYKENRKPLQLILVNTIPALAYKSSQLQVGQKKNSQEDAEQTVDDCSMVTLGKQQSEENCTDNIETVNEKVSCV

Ki [1] [nM]	Ki (D(2) dopamine receptor) [nM]	Ki (D(1A) dopamine receptor) [nM]	SMILES	Kb (Rattus norvegicus [2]) [nM]	Kb (Rattus norvegicus [3]) [nM]
912	589	2140	CCc1c(C)[nH]c2c1C(=O)C(CCN1CCOCC1)CC2 (centres undefined)	105	–
91.2	28.2	1170	CCc1c(C)[nH]c2c1C(=O)C(CCN1CCN(c3ccccc3OC)CC1)CC2 (centres undefined)	–	31.6
–	–	1580	CCc1c(C)[nH]c2c1C(=O)C(CN1CCOCC1)CC2 (centres undefined) [MOLINDONE]	–	–

Reference: ChEMBL document CHEMBL1128852, “Butyrophenone analogues: Synthesis of 2-methyl-3-ethyl-5-aminoethyl-4,5,6,7-tetrahydroindol-4-ones, and their affinities for d1, d2 and 5-ht2a receptors” (Bioorg Med Chem Lett, 1995)
